# Where two headings read alike, the source gives them in different places.
# Experiments:
# [1] = Phase I metabolism of estragole by human liver microsomes; format: in vitro ADME
# [2] = PBBK model for estragole in human; conditions: 0.001 mg/kg bw, after 8 h, compared with Sangster et al., 1987
# [3] = Male rat, Liver; estragole metabolites; ref Punt et al. (2008); cited from earlier work
# [4] = Male rat, Lung, ref Punt et al. (2008), cited from earlier work
# [5] = Male rat, Kidney, ref Punt et al. (2008), cited from earlier work
# [6] = humans, ref Sangster et al., 1987, cited from earlier work
# [7] = rats, 0.05 mg/kg bw; ref Anthony et al., 1987; cited from earlier work
Compound,"Scaled Vmax (app) ([1]; Human, Liver, estragole metabolites, microsomal protein yield 32 mg/g)","Catalytic efficiency ([1]; Human, Liver, estragole metabolites, scaled Vmax (app)/Km(app))",In vitro catalytic efficiency ([1]; Vmax (app)/Km(app) × 1000 μl/ml),predicted formation compared with the reported in vivo level [2],Catalytic efficiency [3],Scaled Vmax (app) [3],Scaled Vmax (app) ([4]; microsomal protein yield 20 mg/g),Catalytic efficiency [4],Km ([4]; read-out: Km (app)) [µM],Scaled Vmax (app) ([5]; microsomal protein yield 7 mg/g),Catalytic efficiency [5],Km ([5]; read-out: Km (app)) [µM],"dose excreted as 14CO2 (level of O-demethylation) ([6]; 0.001 mg/kg bw, after 8 h)","radioactivity excreted in the urine ([6]; 0.001 mg/kg bw, after 8 h)","radioactivity excreted in the urine ([6]; 0.001 mg/kg bw, after 24 h)","radioactivity excreted in the urine ([6]; 0.001 mg/kg bw, after 48 h)",radioactivity not recovered ([6]; within 48 h) [%],oral dose accounted for by O-demethylation [7]
C=CCc1ccc(O)cc1 [4-allylphenol],0.7 μmol h^−1 (g tissue)^−1,2 ml h^−1 (g liver)^−1,1.3 μl min^−1 (mg microsomal protein)^−1,fourfold lower,3 ml h^−1 (g liver)^−1,1.6 μmol h^−1 (g tissue)^−1,0.8 μmol h^−1 (g tissue)^−1,1600 ml h^−1 (g liver)^−1,0.5,0.2 μmol h^−1 (g tissue)^−1,400 ml h^−1 (g liver)^−1,0.5,–,–,–,–,–,–
"C=CCc1ccc(OC)cc1 [estragole, 4-allylanisol]",–,–,–,–,–,–,–,–,–,–,–,–,~10 % of the dose,31–37 % of the dose,47–53 % of the dose,54–62 % of the dose,~30,53 % of the oral dose
